Measured values published in patent publication US20080176932A1, “Pharmaceutical Compositions Containing Baicalein And Baicalin With Synergistic Effect In Tumor Treatment” (priority 2005, published 2008).
Read-outs that look alike come from different tables or passages of the source.

Columns and labels:
L1210 cells [1] = format: in vivo; settings: day 1-10; for ILS(%) increase of life span: L1210 mice
Procedure: (§1) L1210 cells on the growth phase were injected at 1×10^5 cells via I.P. into BDF1 female mice (weight approximately 20 g). The next day of implantation, mice were grouped, and received an injection of 0.1 ml/10 g weight of the drug. […] The number of mice of each group was 10. Mice were weighed before and after the treatment. Survival time of each mouse was recorded. The results of changes in increasing of life span of mice were used in assessment of response. The increase of life span was determined as; increase of life span rate=(median survival time of treated animals/median survival time of control animals−1)×100%, the data were analyzed by t-test.

L1210 cells [2] = format: in vivo; settings: 5-FU 10 mg/kg s.c., day 1-10
Procedure: as §1

[3] = test system: Murine melanoma cell line B 16; test: Solid tumor transplant model, baicalein and scutellarin; format: in vivo, C57BL/6 female mice; settings: for Final Tumor WT. (g) Mean ± SD / Tumor Growth Inhibition %: day 15
Procedure: (§2) C57BL/6 female mice (weight approximately 20 g) were used in this study. Murine melanoma cell line B 16 cells, 2×10^6 tumor cells were implanted s.c. into the armpit of each mice after two passenges in vitro cultured. On the next day after implantation, mice were randomly grouped at 10 per group and received 0.1ml/10 g weight of the drugs. […] The number of mice of each group was 10. Mice were weighed before and post the treatment. Animals were killed on day 15, and the tumors were removed and weighted.

[4] = test system: Murine melanoma cell line B 16; test: Solid tumor transplant model, baicalein and baicalin; format: in vivo
Procedure: as §2, with “0.1 ml/10” for “0.1ml/10”

[5] = test system: Human esophagus cancer cell line TE2; test: MTT growth inhibition, baicalein and scutellarin single or combination; format: cell-based
Procedure: (§3) Cells were seeded onto 96-well plate at 5×10^3 cells/well, and grown in culture medium containing 10% fetal bovine serum (FBS). […] The viable cell growth was determined by MTT assay after 72-h continuous exposure.
(§4) A CI below 1 is an indication of synergy, while a CI equal to 1 represents addition, and a CI above 1 indicates antagonism.

[6] = test system: Human breast cancer cell line MCF-7; test: as above; format: cell-based
Procedure: as §3, §4

[7] = test system: Human prostate cancer cell line PC3; test: as above; format: cell-based
Procedure: as §3, §4

[8] = test system: human liver cancer cell line HepG2; test: as above; format: cell-based
[9] = test system: Human gastric cancer cell line MKN28; test: as above; format: cell-based
[10] = test system: Human colon cancer cell line HCT116; test: as above; format: cell-based
[11] = test system: Human leukemia cell line HL60; test: as above; format: cell-based
[12] = test system: Human hung cancer cell line A549; test: as above; format: cell-based
[13] = B16 mice, 5-FU 10 mg/kg s.c., day 1-10
[14] = female, C57BL/6, mouse, in vivo, 15 days
[15] = B16 mice, day 15, 5-FU 10 mg/kg s.c., day 1-10
[16] = B16 mice, Sc 25 mg/kg i.p., day 1-10
[17] = B16 mice, Sc 50 mg/kg i.p., day 1-10
[18] = B16 mice, Sc 100 mg/kg i.p., day 1-10
[19] = B16 mice, Sc 200 mg/kg i.p., day 1-10

SMILES: O=c1[nH]cc(F)c(=O)[nH]1 [5-FU, 5-fluorouracil, reference compound]
- Number of mice Through surviving 15 days/total number (L1210 cells [1]; 5-FU 10 mg/kg s.c.): 10/10
- ILS(%) increase of life span (L1210 cells [1]; 5-FU 10 mg/kg s.c.): 79%
- Number of mice Surviving through 15 days/total number (L1210 cells [2]): 10/10
- ILS(%) increase of life span (L1210 cells [2]; L1210 mice): 79%
- Final Tumor WT. (g) Mean ± SD [3, 13]: 1.35 ± 0.1 g
- Tumor Growth Inhibition % [3, 13]: 38%
- Number of mice through 15 days/total number [3, 14]: 10/10
- Final Tumor WT. (g) Mean ± SD [4, 15]: 1.35 ± 0.1 g
- Tumor Growth Inhibition % [4, 15]: 38%
- Weight Change % [4, 13]: <5%
- Number of mice Surviving through 15 days/total number [4, 14]: 10/10

SMILES: O=C(O)[C@H]1O[C@@H](Oc2cc3oc(-c4ccc(O)cc4)cc(=O)c3c(O)c2O)[C@H](O)[C@@H](O)[C@@H]1O [Sc, scutellarin]
- Inhibition of cell growth (%) ([5]; single dose 2.5 μm): 4.7 ± 2.2%
- Inhibition of cell growth (%) ([5]; single dose 5 μm): 12.97 ± 3.1%
- Inhibition of cell growth (%) ([5]; single dose 10 μm): 27.1 ± 2.7%
- Inhibition of cell growth (%) ([5]; single dose 20 μm): 66 ± 2.9%
- Inhibition of cell growth (%) ([5]; single dose 40 μm): 84.62 ± 2.5%
- Inhibition of cell growth (%) ([6]; single dose 2.5 μm): 5 ± 2.5%
- Inhibition of cell growth (%) ([6]; single dose 5 μm): 20.71 ± 3.2%
- Inhibition of cell growth (%) ([6]; single dose 10 μm): 71 ± 2.2%
- Inhibition of cell growth (%) ([6]; single dose 20 μm): 87.5 ± 2.5%
- Inhibition of cell growth (%) ([6]; single dose 40 μm): 95.57 ± 2.2%
- Inhibition of cell growth (%) ([7]; single dose 2.5 μm): 2 ± 5%
- Inhibition of cell growth (%) ([7]; single dose 5 μm): 18 ± 3%
- Inhibition of cell growth (%) ([7]; single dose 10 μm): 39 ± 7%
- Inhibition of cell growth (%) ([7]; single dose 20 μm): 72 ± 9%
- Inhibition of cell growth (%) ([7]; single dose 40 μm): 91.8 ± 5%
- ILS(%) increase of life span (L1210 cells [1]; Sc 25 mg/kg i.p.): 11.9%
- ILS(%) increase of life span (L1210 cells [1]; Sc 50 mg/kg i.p.): 26%
- ILS(%) increase of life span (L1210 cells [1]; Sc 100 mg/kg i.p.): 37%
- ILS(%) increase of life span (L1210 cells [1]; Sc 200 mg/kg i.p.): 51%
- Number of mice Through surviving 15 days/total number (L1210 cells [1]; Sc 25 mg/kg i.p.): 10/10
- Number of mice Through surviving 15 days/total number (L1210 cells [1]; Sc 50 mg/kg i.p.): 10/10
- Number of mice Through surviving 15 days/total number (L1210 cells [1]; Sc 100 mg/kg i.p.): 10/10
- Number of mice Through surviving 15 days/total number (L1210 cells [1]; Sc 200 mg/kg i.p.): 10/10
- Inhibition of cell growth (%) ([8]; single dose 2.5 μm): 5.2 ± 2.1%
- Inhibition of cell growth (%) ([8]; single dose 5 μm): 7.7 ± 2.3%
- Inhibition of cell growth (%) ([8]; single dose 10 μm): 43.35 ± 2.7%
- Inhibition of cell growth (%) ([8]; single dose 20 μm): 86.1 ± 2.9%
- Inhibition of cell growth (%) ([8]; single dose 40 μm): 88.45 ± 2.5%
- Inhibition of cell growth (%) ([9]; single dose 2.5 μm): 18.83 ± 2.2%
- Inhibition of cell growth (%) ([9]; single dose 5 μm): 21.23 ± 3.5%
- Inhibition of cell growth (%) ([9]; single dose 10 μm): 31.65 ± 2.8%
- Inhibition of cell growth (%) ([9]; single dose 20 μm): 35.34 ± 2.8%
- Inhibition of cell growth (%) ([9]; single dose 40 μm): 75.34 ± 2.7%
- Inhibition of cell growth (%) ([10]; single dose 2.5 μm): 10.05 ± 2.5%
- Inhibition of cell growth (%) ([10]; single dose 5 μm): 15.1 ± 3%
- Inhibition of cell growth (%) ([10]; single dose 10 μm): 49 ± 2.2%
- Inhibition of cell growth (%) ([10]; single dose 20 μm): 83.7 ± 2.2%
- Inhibition of cell growth (%) ([10]; single dose 40 μm): 95 ± 2.8%
- Final Tumor WT. (g) Mean ± SD [3, 16]: 1.81 ± 0.11 g
- Tumor Growth Inhibition % [3, 16]: 17%
- Final Tumor WT. (g) Mean ± SD [3, 17]: 1.72 ± 0.08 g
- Tumor Growth Inhibition % [3, 17]: 21.1%
- Final Tumor WT. (g) Mean ± SD [3, 18]: 1.48 ± 0.12 g
- Tumor Growth Inhibition % [3, 18]: 32.1%
- Final Tumor WT. (g) Mean ± SD [3, 19]: 1.22 ± 0.09 g
- Tumor Growth Inhibition % [3, 19]: 44%
- Number of mice through 15 days/total number [3, 16]: 10/10
- Weight Change % [3, 16]: <5%
- Number of mice through 15 days/total number [3, 17]: 10/10
- Weight Change % [3, 17]: <5%
- Number of mice through 15 days/total number [3, 18]: 10/10
- Weight Change % [3, 18]: <5%
- Number of mice through 15 days/total number [3, 19]: 10/10
- Weight Change % [3, 19]: <5%
- Inhibition of cell growth (%) ([11]; single dose 2.5 μm): 2.25 ± 2.7%
- Inhibition of cell growth (%) ([11]; single dose 5 μm): 8.64 ± 3.2%
- Inhibition of cell growth (%) ([11]; single dose 10 μm): 37 ± 2.2%
- Inhibition of cell growth (%) ([11]; single dose 20 μm): 64.2 ± 2.7%
- Inhibition of cell growth (%) ([11]; single dose 40 μm): 88.5 ± 2.5%
- Inhibition of cell growth (%) ([12]; single dose 2.5 μm): 1 ± 2.1%
- Inhibition of cell growth (%) ([12]; single dose 5 μm): 7.7 ± 3.3%
- Inhibition of cell growth (%) ([12]; single dose 10 μm): 32.33 ± 2.7%
- Inhibition of cell growth (%) ([12]; single dose 20 μm): 62.65 ± 2.5%
- Inhibition of cell growth (%) ([12]; single dose 40 μm): 91 ± 2.7%
